Patent EP0326331B1, “Substituted quinolines and cinnolines” (Dow AgroSciences LLC, priority 1988, dated 1989)

Legend:
Format in all cases: in vivo
[1] = tested on: Pyricularia oryzae (rice blast); test: whole plant or invertebrate; conditions: disease control rating, foliar spray on rice, 400 ppm (+++ at 100 ppm)
[2] = tested on: melon aphids (Aphis gossypii Glover); test: Mite/insect screen, MA; conditions: Aphis gossypii, percent mortality, SAW, read-out: MA RESULTS %; for mortality at 200 ppm: SM & MA RATE 200 PPM; for mortality at 400 ppm: SM & MA RATE 400 PPM
Protocol: (§1) The compounds of Examples 1-295 were tested for miticidal and insecticidal activity in the following mite/insect screen.
(§2) Each test compound was formulated by dissolving the compound in acetone/alcohol (50:50) mixture containing 23 g of "TOXIMUL R" (sulfonate/nonionic emulsifier blend) and 13 g of "TOXIMUL S" (sulfonate/nonionic emulsifier blend) per liter. These mixtures were then diluted with water to give the indicated concentrations.
(§3) Other plants in the same treatment pot were left uninfested. The leaves were then sprayed with 5 ml of test solution using a DeVilbiss atomizing sprayer at 10 psi. Both surfaces of the leaves were covered until runoff, and then allowed to dry for one hour. Two uninfested leaves were then excised and placed into a Petri dish containing southern armyworm (Spodopetra eridania Cramer).
(§4) After standard exposure periods, percent mortality was evaluated. […]

[3] = tested on: Pseudoperonospora cubensis (downy mildew); test: Test 1 greenhouse foliar spray screen, downy mildew on squash; conditions: disease control rating, foliar spray on squash, 400 ppm (+++ at 100 ppm)
[4] = tested on: southern armyworm (Spodopetra eridania Cramer); test: Mite/insect screen, SAW; conditions: Spodoptera eridania, percent mortality, SAW, read-out: SAW RESULTS %; for mortality at 200 ppm: SM & MA RATE 200 PPM; for mortality at 400 ppm: SM & MA RATE 400 PPM
Protocol: as §1, §2, §3, §4

[5] = tested on: Puccinia recondita tritici (leaf rust); test: Test 1 greenhouse foliar spray screen, leaf rust on wheat; conditions: disease control rating, foliar spray on wheat, 400 ppm (+++ at 100 ppm)
[6] = tested on: Botrytis cinerea (gray mold); test: Test 1 greenhouse foliar spray screen, gray mold on grape berries; conditions: disease control rating, spray on grape berries, 400 ppm (+++ at 100 ppm)
[7] = tested on: Erysiphe graminis tritici (powdery mildew); test: Test 1 greenhouse foliar spray screen, powdery mildew on wheat; conditions: disease control rating, foliar spray on wheat, 400 ppm (+++ at 100 ppm)
[8] = tested on: Twospotted spider mites (Tetranychus urticae Koch); test: Mite/insect screen, SM; conditions: for mortality at 200 ppm / mortality at 400 ppm: Tetranychus urticae, percent mortality, SAW, read-out: SM RESULTS %; for mortality at 200 ppm: SM & MA RATE 200 PPM; for mortality at 400 ppm: SM & MA RATE 400 PPM
Protocol: as §1, §2, §3, §4

corn rootworm = test: Mite/insect screen, CRW; conditions: percent mortality, read-out: CRW RESULTS %; for mortality at 12 ppm: CRW RATE 12.00 PPM; for mortality at 24 ppm: CRW RATE 24.00 PPM
Protocol: as §1, §2, §4

With `CC(=O)N(CCc1c(C)c(C)c(C)c(C)c1C)c1ccnc2c(F)cccc12` [Example 131, N-[2-(pentamethylphenyl)ethyl]-N-(8-fluoro-4-quinolinyl)acetamide] the “RICE BLAST” value [1] was “- (0-19% control at 400 ppm)”, the mortality at 200 ppm [2] was 0% and the mortality at 400 ppm [2] was 0%. For the same compound, the “DOWN MDEW” value [3] was “+ (20-89% control at 400 ppm)”, the mortality at 200 ppm [4] was 0% and the mortality at 400 ppm [4] was 0%. The “LEAF RUST” value [5] was “- (0-19% control at 400 ppm)”, the “GRAY MOLD” value [6] was “- (0-19% control at 400 ppm)” and the “POWD MDEW” value [7] was “- (0-19% control at 400 ppm)”. For the same compound, the mortality at 200 ppm [8] was 0%, the mortality at 400 ppm [8] was 0% and the mortality at 12 ppm (corn rootworm) was 0%. For the same compound, the mortality at 24 ppm (corn rootworm) was 0%.
In the case of `CC(=O)N(CCc1ccccc1Cl)c1ccnc2c(Cl)cccc12` [Example 132, N-[2-(2-chlorophenyl)ethyl]-N-(8-chloro-4-quinolinyl)acetamide], the “RICE BLAST” value [1] is reported as “- (0-19% control at 400 ppm)”, the mortality at 200 ppm [2] is reported as 0% and the mortality at 400 ppm [2] is reported as 0%. For the same compound, the “DOWN MDEW” value [3] was “- (0-19% control at 400 ppm)”, the mortality at 200 ppm [4] was 0% and the mortality at 400 ppm [4] was 0%. For the same compound, the “LEAF RUST” value [5] was “- (0-19% control at 400 ppm)”, the “GRAY MOLD” value [6] was “- (0-19% control at 400 ppm)” and the “POWD MDEW” value [7] was “- (0-19% control at 400 ppm)”. For the same compound, the mortality at 200 ppm [8] was 0%, the mortality at 400 ppm [8] was 0% and the mortality at 12 ppm (corn rootworm) was 0%. The mortality at 24 ppm (corn rootworm) was 0%.
In the case of `COc1ccc(CCNc2ccnc3c(C)c(C)ccc23)cc1` [Example 133, N-[2-(4-methoxyphenyl)ethyl]-7,8-dimethyl-4-quinolinamine], the “RICE BLAST” value [1] is reported as “+ (20-89% control at 400 ppm)”, the mortality at 200 ppm [2] is reported as 0% and the mortality at 400 ppm [2] is reported as 0%. The “DOWN MDEW” value [3] was “+ (20-89% control at 400 ppm)”, the mortality at 200 ppm [4] was 0% and the mortality at 400 ppm [4] was 0%. The “LEAF RUST” value [5] was “+ (20-89% control at 400 ppm)”, the “GRAY MOLD” value [6] was “- (0-19% control at 400 ppm)” and the “POWD MDEW” value [7] was “- (0-19% control at 400 ppm)”. For the same compound, the mortality at 200 ppm [8] was 0%, the mortality at 400 ppm [8] was 0% and the mortality at 12 ppm (corn rootworm) was 0%. The mortality at 24 ppm (corn rootworm) was 0%.
With `Clc1ccc2c(NCCCc3ccc(-c4ccccc4)cc3)ccnc2c1` [Example 134, 7-chloro-N-[3-(1,1'-biphenyl)-4-ylpropyl]-4-quinolinamine] the “RICE BLAST” value [1] was “++ (90-100% control at 400 ppm)”, the mortality at 400 ppm [2] was 0% and the “DOWN MDEW” value [3] was “+++ (90-100% control at 100 ppm)”. For the same compound, the mortality at 400 ppm [4] was 0%, the “LEAF RUST” value [5] was “+ (20-89% control at 400 ppm)” and the “GRAY MOLD” value [6] was “- (0-19% control at 400 ppm)”. For the same compound, the “POWD MDEW” value [7] was “+ (20-89% control at 400 ppm)”, the mortality at 400 ppm [8] was 0% and the mortality at 24 ppm (corn rootworm) was 0%.
With `Fc1cccc2c(NCCCc3ccc(-c4ccccc4)cc3)ccnc12` [Example 137, N-[3-(1,1'-biphenyl)-4-ylpropyl]-8-fluoro-4-quinolinamine] the “RICE BLAST” value [1] was “+++ (90-100% control at 100 ppm)”, the mortality at 400 ppm [2] was 80% and the “DOWN MDEW” value [3] was “+++ (90-100% control at 100 ppm)”. For the same compound, the mortality at 400 ppm [4] was 100%, the “LEAF RUST” value [5] was “+ (20-89% control at 400 ppm)” and the “GRAY MOLD” value [6] was “- (0-19% control at 400 ppm)”. The “POWD MDEW” value [7] was “+ (20-89% control at 400 ppm)”, the mortality at 400 ppm [8] was 80% and the activity as miticides ([8]; summary statement in the description) was “particularly excellent activity”. The mortality at 24 ppm (corn rootworm) was 0%.
For `CC(CCc1ccccc1)Nc1ccnc2c(F)cccc12` (centres unmarked) [Example 138, 8-fluoro-N-(1-methyl-3-phenylpropyl)-4-quinolinamine], the “RICE BLAST” value [1] was “+ (20-89% control at 400 ppm)”, the mortality at 400 ppm [2] was 0% and the “DOWN MDEW” value [3] was “+++ (90-100% control at 100 ppm)”. The mortality at 400 ppm [4] was 0%, the “LEAF RUST” value [5] was “+ (20-89% control at 400 ppm)” and the “GRAY MOLD” value [6] was “- (0-19% control at 400 ppm)”. The “POWD MDEW” value [7] was “- (0-19% control at 400 ppm)”, the mortality at 400 ppm [8] was 0% and the mortality at 24 ppm (corn rootworm) was 0%.
With `CC(=O)N(CCCCc1ccc(Cl)cc1)c1ccnc2c(F)cccc12` [Example 141, N-[4-(4-chlorophenyl)butyl]-N-(8-fluoro-4-quinolinyl)acetamide] the “RICE BLAST” value [1] was “++ (90-100% control at 400 ppm)”, the mortality at 200 ppm [2] was 0% and the mortality at 400 ppm [2] was 0%. For the same compound, the “DOWN MDEW” value [3] was “+ (20-89% control at 400 ppm)”, the mortality at 200 ppm [4] was 0% and the mortality at 400 ppm [4] was 0%. For the same compound, the “LEAF RUST” value [5] was “+ (20-89% control at 400 ppm)”, the “GRAY MOLD” value [6] was “- (0-19% control at 400 ppm)” and the “POWD MDEW” value [7] was “- (0-19% control at 400 ppm)”. For the same compound, the mortality at 200 ppm [8] was 0%, the mortality at 400 ppm [8] was 0% and the mortality at 12 ppm (corn rootworm) was 0%. For the same compound, the mortality at 24 ppm (corn rootworm) was 0%.
With `Cc1ccc(C)c2c(NCCC3=CCCCC3)ccnc12` [Example 142, N-[2-(1-cyclohexenyl)ethyl]-5,8-dimethyl-4-quinolinamine] the “RICE BLAST” value [1] was “++ (90-100% control at 400 ppm)”, the mortality at 200 ppm [2] was 0% and the mortality at 400 ppm [2] was 0%. The “DOWN MDEW” value [3] was “+++ (90-100% control at 100 ppm)”, the mortality at 200 ppm [4] was 0% and the mortality at 400 ppm [4] was 0%. For the same compound, the “LEAF RUST” value [5] was “++ (90-100% control at 400 ppm)”, the “GRAY MOLD” value [6] was “- (0-19% control at 400 ppm)” and the “POWD MDEW” value [7] was “- (0-19% control at 400 ppm)”. It also gave a mortality at 200 ppm [8] of 0%, a mortality at 400 ppm [8] of 0% and a mortality at 12 ppm (corn rootworm) of 0%. For the same compound, the mortality at 24 ppm (corn rootworm) was 0%.
For `CC(=O)N(CCC1=CCCCC1)c1ccnc2ccc(F)cc12` [Example 146, N-[2-(1-cyclohexenyl)ethyl]-N-(6-fluoro-4-quinolinyl)acetamide], the “RICE BLAST” value [1] was “- (0-19% control at 400 ppm)”, the mortality at 200 ppm [2] was 0% and the mortality at 400 ppm [2] was 0%. The “DOWN MDEW” value [3] was “+ (20-89% control at 400 ppm)”, the mortality at 200 ppm [4] was 0% and the mortality at 400 ppm [4] was 0%. The “LEAF RUST” value [5] was “- (0-19% control at 400 ppm)”, the “GRAY MOLD” value [6] was “- (0-19% control at 400 ppm)” and the “POWD MDEW” value [7] was “- (0-19% control at 400 ppm)”. For the same compound, the mortality at 200 ppm [8] was 0%, the mortality at 400 ppm [8] was 0% and the mortality at 12 ppm (corn rootworm) was 0%. The mortality at 24 ppm (corn rootworm) was 0%.
For `OC(CNc1ccnc2c(F)cccc12)c1ccc2ccccc2c1` (stereo not drawn) [Example 157, α-[[(8-fluoro-4-quinolinyl)amino]methyl]-2-naphthalenemethanol], the “RICE BLAST” value [1] was “++ (90-100% control at 400 ppm)”, the mortality at 400 ppm [2] was 0% and the “DOWN MDEW” value [3] was “+++ (90-100% control at 100 ppm)”. The mortality at 400 ppm [4] was 100%, the “LEAF RUST” value [5] was “++ (90-100% control at 400 ppm)” and the “GRAY MOLD” value [6] was “- (0-19% control at 400 ppm)”. For the same compound, the “POWD MDEW” value [7] was “- (0-19% control at 400 ppm)”, the mortality at 400 ppm [8] was 80% and the mortality at 24 ppm (corn rootworm) was 0%.
For `CC(=O)N(CCC1=CCCCC1)c1ccnc2c(C)ccc(C)c12` [Example 160, N-[2-(1-cyclohexenyl)ethyl]-N-(5,8-dimethyl-4-quinolinyl)acetamide], the “RICE BLAST” value [1] was “+ (20-89% control at 400 ppm)”, the mortality at 200 ppm [2] was 0% and the mortality at 400 ppm [2] was 0%. For the same compound, the “DOWN MDEW” value [3] was “- (0-19% control at 400 ppm)”, the mortality at 200 ppm [4] was 0% and the mortality at 400 ppm [4] was 0%. For the same compound, the “LEAF RUST” value [5] was “- (0-19% control at 400 ppm)”, the “GRAY MOLD” value [6] was “- (0-19% control at 400 ppm)” and the “POWD MDEW” value [7] was “- (0-19% control at 400 ppm)”. It also gave a mortality at 200 ppm [8] of 0%, a mortality at 400 ppm [8] of 0% and a mortality at 12 ppm (corn rootworm) of 0%. It also gave a mortality at 24 ppm (corn rootworm) of 0%.
